Test results from patent US4340539A, “Derivatives of 6-bromo penicillanic acid” (priority 1980, dated 1982).
Read-outs that look alike come from different tables or passages of the source.

Tests used:
P. vulgaris = assay: Antibacterial activity (MIC); type: cell-based; details: Proteus vulgaris; strain A21559
[1] = system: β-lactamase-producing bacteria; assay: Protection of ceforanide and amoxicillin from destruction by β-lactamase-producing bacteria; details: in vitro and in vivo, in combination
bacteria = assay: Antibacterial activity (statement); type: cell-based
B. fragilis = assay: Anti-Bacteroides activity (MIC, agar dilution), alone and in combination with BL-P2013; type: cell-based
S. marcescens = assay: Antibacterial activity (MIC); type: cell-based; details: Serratia marcescens; strain A20019
B. thetaiotaomicron = assay: Anti-Bacteroides activity (MIC, agar dilution), alone and in combination with BL-P2013; type: cell-based
Method: *Minimum inhibitory concentration (MIC) determined by the agar dilution
method using 50X dilutions of 24 hour cultures as inocula dispensed by th
Steer's inoculator. Assay medium composed of Brucella Agar plus 5% laked
sheep blood and 10 mcg/ml vitamin K.

P. aeruginosa = assay: Antibacterial activity (MIC); type: cell-based
S. aureus A-9606 = assay: Therapeutic efficacy in mice experimentally infected with a beta-lactamase strain of Staphylococcus aureus (Table 3); type: in vivo; details: for ED50: Staphylococcus aureus, A9606, challenge 5 × 10^8, read-out: PD50/Treatment
Method: Treatment schedule: Drugs administered 0 and 2 hours postinfection.

S. aureus = assay: Antibacterial activity (MIC); type: cell-based; details: Staphylococcus aureus
P. mirabilis = assay: Antibacterial activity (MIC); type: cell-based; details: Proteus mirabilis; strain A-9900
S. pneumoniae = assay: Antibacterial activity (MIC); type: cell-based; details: Streptococcus pneumoniae; strain A-9585
S. pyogenes = assay: Antibacterial activity (MIC); type: cell-based; details: Streptococcus pyogenes; strain A-9604
S. faecalis = assay: Antibacterial activity (MIC); type: cell-based; details: Enterococcus faecalis; strain A20688
P. morganii = assay: Antibacterial activity (MIC); type: cell-based; details: Morganella morganii; strain A15153
E. coli = assay: Antibacterial activity (MIC); type: cell-based; details: Escherichia coli
[2] = Blood levels after oral administration to mice (Table 4); type: in vivo; details: mouse; for concentration at 0.5 h: 30 min; for concentration at 1 h: 60 min; for concentration at 2 h: 120 min
K. pneumoniae = assay: Antibacterial activity (MIC); type: cell-based
β-lactamases = assay: Inhibition of β-lactamases; type: biochemical
Bacteroides species = assay: Anti-Bacteroides activity (MIC, agar dilution), alone and in combination with BL-P2013; type: cell-based
[3] = system: β-lactamase producing strains of S. aureus; assay: animal or person; type: in vivo, mice; details: Staphylococcus aureus, in Mus musculus, po
Method: (§1) Drugs were administered orally at 0 and 2 hours postinfection.
(§2) Drugs were suspended in TCMC.

[4] = system: β-lactamase producing strains of E. coli; assay: animal or person; type: in vivo, mice; details: Escherichia coli, in Mus musculus, po
Method: as §1, §2

P. rettgeri = assay: Antibacterial activity (MIC); type: cell-based; details: Providencia rettgeri; strain A21203
E. cloacae = assay: Antibacterial activity (MIC); type: cell-based; details: Enterobacter cloacae
[5] = 100 mg/kg, oral 100 mg/kg, assay organism E. coli A-9675, read-out: Blood level
[6] = 100 mg/kg, oral 100 mg/kg, assay organism S. aureus A-9606, read-out: Blood level
[7] = 200 mg/kg, oral 200 mg/kg, assay organism S. aureus A-9606, read-out: Blood level

## CC1(CCl)C(C(=O)O)N2C(=O)CC2S1(=O)=O (stereo not drawn) [BL-P2013, Potassium 2β-Chloromethyl-2α-methylpenam-3α-carboxylate Sulfone]
P. vulgaris
  MIC: > 125 µg/mL
[1]
  protection of ceforanide and amoxicillin from destruction: protected ceforanide and amoxicillin from destruction by β-lactamase-producing bacteria in vitro and in vivo
bacteria
  antibacterial activity: at best a very weak antibacterial agent
B. fragilis; strain A21875, β-lactamase +
  MIC: 63 µg/mL
B. fragilis; strain A21916, β-lactamase +, read-out: MIC
  MIC: > 125 µg/mL
B. fragilis; strain A22021, β-lactamase +, read-out: MIC
  MIC: 32 µg/mL
B. fragilis; strain A22053, β-lactamase +
  MIC: 63 µg/mL
B. fragilis; strain A22533, β-lactamase +, read-out: MIC
  MIC: 32 µg/mL
B. fragilis; strain A22534, β-lactamase +, read-out: MIC
  MIC: 125 µg/mL
B. fragilis; strain A22535, β-lactamase +, read-out: MIC
  MIC: 125 µg/mL
B. fragilis; strain A22693, β-lactamase +
  MIC: 63 µg/mL
B. fragilis; strain A22694, β-lactamase +
  MIC: 63 µg/mL
B. fragilis; strain A22695, β-lactamase +, read-out: MIC
  MIC: 32 µg/mL
B. fragilis; strain A22696, β-lactamase +
  MIC: 63 µg/mL
B. fragilis; strain A22697, β-lactamase +
  MIC: 63 µg/mL
B. fragilis; strain A22792, β-lactamase +, read-out: MIC
  MIC: 32 µg/mL
B. fragilis; strain A22793, β-lactamase +, read-out: MIC
  MIC: 32 µg/mL
B. fragilis; strain A22794, β-lactamase +, read-out: MIC
  MIC: 32 µg/mL
B. fragilis; strain A22795, β-lactamase +, read-out: MIC
  MIC: 32 µg/mL
B. fragilis; strain A22797, β-lactamase +
  MIC: 63 µg/mL
B. fragilis; strain A22798, β-lactamase +
  MIC: 63 µg/mL
S. marcescens
  MIC: > 125 µg/mL
B. thetaiotaomicron; Bacteroides thetaiotaomicron, strain A22277, β-lactamase +, read-out: MIC
  MIC: 63 µg/mL
B. thetaiotaomicron; strain A22279, β-lactamase +
  MIC: 63 µg/mL
P. aeruginosa; Pseudomonas aeruginosa, strain A-9843A, read-out: MIC
  MIC: > 125 µg/mL
P. aeruginosa; strain A21213
  MIC: > 125 µg/mL
S. aureus A-9606; IM, challenge 7 × 10^8
  PD50/Treatment: > 50 mg/kg
S. aureus A-9606; IM
  ED50: > 50 mg/kg
S. aureus A-9606; PO
  ED50: > 200 mg/kg
S. aureus; strain A15097, Meth-Res
  MIC: > 125 µg/mL
S. aureus; strain A-9537
  MIC: > 125 µg/mL
S. aureus; strain A-9537, + 50% serum
  MIC: > 125 µg/mL
S. aureus; strain A-9606, Pen-Res
  MIC: > 125 µg/mL
P. mirabilis
  MIC: > 125 µg/mL
S. pneumoniae
  MIC: 16 µg/mL
S. pyogenes
  MIC: 63 µg/mL
S. faecalis
  MIC: > 125 µg/mL
P. morganii
  MIC: > 125 µg/mL
E. coli; strain A15119
  MIC: > 125 µg/mL
E. coli; strain A20341-1
  MIC: > 125 µg/mL
[2]; 100 mg/kg, oral 100 mg/kg, 15 min, assay organism E. coli A-9675, read-out: Blood level
  concentration at […]: 4500 ng/mL
[2]; 100 mg/kg, oral 100 mg/kg, 15 min, assay organism S. aureus A-9606, read-out: Blood level
  concentration at […]: 4600 ng/mL
[2]; [5]
  concentration at 0.5 h: 5100 ng/mL
  concentration at 2 h: 1500 ng/mL
[2]; [6]
  concentration at 0.5 h: 4100 ng/mL
  concentration at 1 h: 3000 ng/mL
  concentration at 2 h: < 2600 ng/mL
[2]; 100 mg/kg, oral 100 mg/kg, 90 min, assay organism E. coli A-9675, read-out: Blood level
  concentration at […]: 2300 ng/mL
[2]; 100 mg/kg, oral 100 mg/kg, 90 min, assay organism S. aureus A-9606, read-out: Blood level
  concentration at […]: < 2600 ng/mL
[2]; 100 mg/kg, oral 100 mg/kg, 150 min, assay organism S. aureus A-9606, read-out: Blood level
  concentration at […]: < 2600 ng/mL
[2]; 100 mg/kg, oral 100 mg/kg, assay organism E. coli A-9675
  half-life: 50 min
[2]; 200 mg/kg, oral 200 mg/kg, 15 min, assay organism S. aureus A-9606, read-out: Blood level
  concentration at […]: 7400 ng/mL
[2]; [7]
  concentration at 0.5 h: 9800 ng/mL
  concentration at 1 h: 7100 ng/mL
  concentration at 2 h: 2800 ng/mL
[2]; 200 mg/kg, oral 200 mg/kg, 90 min, assay organism S. aureus A-9606, read-out: Blood level
  concentration at […]: 4100 ng/mL
[2]; 200 mg/kg, oral 200 mg/kg, 150 min, assay organism S. aureus A-9606, read-out: Blood level
  concentration at […]: < 2600 ng/mL
[2]; 200 mg/kg, oral 200 mg/kg, assay organism S. aureus A-9606
  half-life: 50 min
K. pneumoniae; Klebsiella pneumoniae, strain A15130, read-out: MIC
  MIC: > 125 µg/mL
K. pneumoniae; strain A20468
  MIC: > 125 µg/mL
β-lactamases
  β-lactamase inhibition: inhibits β-lactamases
Bacteroides species; Bacteroides
  MIC: 63 µg/mL
Bacteroides species; Bacteroides, strain A20929, β-lactamase +, read-out: MIC
  MIC: 32 µg/mL
Bacteroides species; Bacteroides, strain A20930, β-lactamase +, read-out: MIC
  MIC: 125 µg/mL
Bacteroides species; Bacteroides, strain A20931, β-lactamase +, read-out: MIC
  MIC: 32 µg/mL
Bacteroides species; Bacteroides, strain A20934, β-lactamase +, read-out: MIC
  MIC: 32 µg/mL
Bacteroides species; Bacteroides, strain A20935, β-lactamase -, read-out: MIC
  MIC: 125 µg/mL
Bacteroides species; Bacteroides, strain A21959, β-lactamase +, read-out: MIC
  MIC: 32 µg/mL
Bacteroides species; strain A20927-1, β-lactamase -
  MIC: 63 µg/mL
Bacteroides species; strain A20933, β-lactamase +
  MIC: 63 µg/mL
[3]; read-out: PD50/Treatment, oral, S. aureus A9606, challenge 2 × 10^9
  ED50: > 200 mg/kg
[3]; read-out: PD50/Treatment, oral, S. aureus A9606, challenge 7 × 10^8
  ED50: > 200 mg/kg
[3]; read-out: PD50/Treatment, oral, S. aureus A15091, challenge 4 × 10^8
  ED50: > 200 mg/kg
[3]; read-out: PD50/Treatment, oral, S. aureus A15091, challenge 5 × 10^8
  ED50: > 200 mg/kg
[3]; read-out: PD50/Treatment, oral, S. aureus A20379, challenge 5 × 10^8
  ED50: > 200 mg/kg
[3]; read-out: PD50/Treatment, oral, S. aureus A20379, challenge 6 × 10^8
  ED50: 174 mg/kg
[4]; read-out: PD50/Treatment, oral, E. coli A9675, challenge 6 × 10^5
  ED50: > 200 mg/kg
[4]; read-out: PD50/Treatment, oral, E. coli A9675, challenge 7 × 10^5
  ED50: > 100 mg/kg
[4]; read-out: PD50/Treatment, oral, E. coli A9675, challenge 8 × 10^5
  ED50: > 200 mg/kg
[4]; read-out: PD50/Treatment, oral, E. coli A20649, challenge 5 × 10^5
  ED50: > 200 mg/kg
[4]; read-out: PD50/Treatment, oral, E. coli A20649, challenge 6 × 10^5
  ED50: > 200 mg/kg
[4]; read-out: PD50/Treatment, oral, E. coli A21223, challenge 6 × 10^5
  ED50: > 200 mg/kg
[4]; read-out: PD50/Treatment, oral, E. coli A21223, challenge 7 × 10^5 (first line)
  ED50: > 200 mg/kg
[4]; read-out: PD50/Treatment, oral, E. coli A21223, challenge 7 × 10^5 (third line)
  ED50: > 200 mg/kg
P. rettgeri
  MIC: > 125 µg/mL
E. cloacae; strain A-9656
  MIC: > 125 µg/mL
E. cloacae; strain A-9659
  MIC: > 125 µg/mL
